In patent US8541407B2 (ArQule, Inc., priority 2010, dated 2013):

Molecular target: AKT1 (Homo sapiens (Human), UniProt P31749)
Experiment: Inactive Akt HTRF Assay (AKT1)
Settings: *labeled: Akt HTFR assay; read-out: AKT1 biochemical assay, IC50
Description: AKT1 activity was assayed using CisBio KinEASE™ HTRF Assay technology. This technology utilizes a proprietary biotinylated peptide substrate (STKS3), streptavidin labeled XL665 antibody, and STK antibody-Eu^3+-cryptate. AKT1 activation was achieved by the addition of the activating kinases PDK1 and MAPKAPK2, lipid vesicles, and ATP. The extent of STKS3 biotinylated peptide phosphorylation was determined using a phospho-STK antibody-Eu^3+-cryptate and streptavidin labeled XL665 antibody. XL665 was stimulated by Eu^3+-cryptate resulting in a TR-FRET signal proportional to the STKS3 phosphorylation level.
Representative compounds of the invention and controls ((S)-1-((5-(3-methyl-1H-indazol-5-yl)pyridin-3-yl)oxy)-3-phenylpropan-2-amine, 1-(1-(4-(7-phenyl-1H-imidazo[4,5-g]quinoxalin-6-yl)benzyl)piperidin-4-yl)-1H-benzo[d]imidazol-2(3H)-one, and 8-(4-(1-aminocyclobutyl)phenyl)-9-phenyl-[1,2,4]triazolo[3,4-f][1,6]naphthyridin-3(2H)-one) were prepared in 10% DMSO at 10-fold the desired final concentration, and added to each well of a reaction plate (Corning 96-well half-area solid black nonbinding surface plate) in a volume of 2.5 μL. […] After a 20 minute pre-incubation at room temperature, the kinase reaction was initiated by the addition of 5 μL of an activation mixture diluted in assay buffer containing biotinylated STKS3, PDK1, MAPKAPK2, DOPS/DOPC, PtdIns(3,4,5)P3, and ATP for final concentrations of 150 nM biotinylated STKS3, 1 nM (AKT1), 2.5 nM (AKT2), or 0.4 nM (AKT3) PDK1, 0.8 nM (AKT1), 2 nM (AKT2), or 0.3 nM (AKT3) MK2, 5.5 μM DOPS, 5.5 μM DOPC, 0.5 μM PtdIns(3,4,5)P3, and 50 μM ATP. The plates were incubated for 30 minutes at room temperature, and then stopped by the addition of 25 μL HTRF Detection Buffer containing phospho-STK antibody-Eu^3+-cryptate and streptavidin labeled XL665 antibody, at dilutions of 1:192 and 1:500 respectively. Final assay dilutions of phospho-STK antibody-Eu^3+-cryptate and streptavidin labeled XL665 antibody were 1:384 and 1:1,000 respectively. Assay plates were incubated for 60 minutes at room temperature, and the plates were read on a Perkin Elmer Envision Multilabel plate reader (excitation: 320 nm, emission I: 665 nm, emission II: 615 nm).

Chain of AKT1 (P31749 whole entry): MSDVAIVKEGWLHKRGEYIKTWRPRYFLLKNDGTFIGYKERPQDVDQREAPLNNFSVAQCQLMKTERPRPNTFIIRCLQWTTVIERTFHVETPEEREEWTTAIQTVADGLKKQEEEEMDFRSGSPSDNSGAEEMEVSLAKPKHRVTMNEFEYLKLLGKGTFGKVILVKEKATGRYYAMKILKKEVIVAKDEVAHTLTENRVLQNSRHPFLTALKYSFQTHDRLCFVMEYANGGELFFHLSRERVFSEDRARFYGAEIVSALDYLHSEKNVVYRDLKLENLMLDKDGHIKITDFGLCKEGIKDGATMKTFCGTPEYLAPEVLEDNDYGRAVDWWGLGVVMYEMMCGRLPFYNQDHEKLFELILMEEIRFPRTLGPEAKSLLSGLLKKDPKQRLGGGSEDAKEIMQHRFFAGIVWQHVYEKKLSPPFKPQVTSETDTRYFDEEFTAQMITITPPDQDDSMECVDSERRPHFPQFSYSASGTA

IC50	SMILES
56 µM	CC(C)(C)OC(=O)NC1CCN(C(=O)c2ccc(-c3nnc4n3-c3cccnc3Nc3ccccc3-4)cc2)CC1 [Example 210, tert-butyl (1-(4-(9H-benzo[f]pyrido[2,3-b][1,2,4]triazolo[4,3-d][1,4]diazepin-3-yl)benzoyl)piperidin-4-yl)carbamate]
41 µM	CC(C)(C)OC(=O)N1CCN(C(=O)c2ccc(-c3nnc4n3-c3cccnc3Nc3ccccc3-4)cc2)CC1 [Example 208, tert-butyl 4-(4-(9H-benzo[f]pyrido[2,3-b][1,2,4]triazolo[4,3-d][1,4]diazepin-3-yl)benzoyl)piperazine-1-carboxylate]
7.6 µM	COc1cccc(C(=O)NC2CCN(Cc3ccc(-c4nnc5n4-c4cccnc4Nc4ccccc4-5)cc3)CC2)c1 [Example 215, N-(1-(4-(9H-benzo[f]pyrido[2,3-b][1,2,4]triazolo[4,3-d][1,4]diazepin-3-yl)benzyl)piperidin-4-yl)-3-methoxybenzamide]
14 µM	CC(C)(C)OC(=O)NCc1ccc(-c2nnc3n2-c2cccnc2Nc2ccccc2-3)cc1 [Example 213, tert-butyl 4-(9H-benzo[f]pyrido[2,3-b][1,2,4]triazolo[4,3-d][1,4]diazepin-3-yl)benzylcarbamate]
17 µM	O=C(c1ccc(-c2nnc3n2-c2cccnc2Nc2ccccc2-3)cc1)N1CCNCC1 [Example 209, (4-(9H-benzo[f]pyrido[2,3-b][1,2,4]triazolo[4,3-d][1,4]diazepin-3-yl)phenyl)(piperazin-1-yl)methanone]
14 µM	NCCc1ccc(-c2nnc3n2-c2cccnc2Nc2ccccc2-3)cc1 [Example 214, 2-(4-(9H-benzo[f]pyrido[2,3-b][1,2,4]triazolo[4,3-d][1,4]diazepin-3-yl)phenyl)ethanamine]
70 µM	NC1CCN(C(=O)c2ccc(-c3nnc4n3-c3cccnc3Nc3ccccc3-4)cc2)CC1 [Example 211, (4-(9H-benzo[f]pyrido[2,3-b][1,2,4]triazolo[4,3-d][1,4]diazepin-3-yl)phenyl)(4-aminopiperidin-1-yl)methanone]
4.3 µM	CC(C)(C)OC(=O)NCCc1ccc(-c2nnc3n2-c2cccnc2Nc2ccccc2-3)cc1 [Example 212, tert-butyl 4-(9H-benzo[f]pyrido[2,3-b][1,2,4]triazolo[4,3-d][1,4]diazepin-3-yl)phenethylcarbamate]
